# Experimental data as given in article PMC9636434, “Discovery of small molecule agonists of the Relaxin Family Peptide Receptor 2” (Communications Biology, 2022).
# Where “and” joins values, the source holds several entries; their conditions need not be identical. Identical values can stand only once. Like-named read-outs stand apart in the source and are kept apart here.
# Assays:
# vertebrae and femur = test: Biomechanical testing of L3 vertebrae (compression) and femur (3-point bending); format: in vivo, mouse; settings: for Elastic Modulus (MPa) / Ultimate Stress (MPa) / Yield Stress (MPa): individual mice
# Excerpt: Previously it was established that C57BL/6 J female mice start losing trabecular bone mass naturally after they reach 8 weeks of age, which provides a model to study the anabolic effects of compound on bone metabolism. The use of females provides a test model with low if any basal INSL3 exposure. […] As previously reported, INSL3 induces an increase in Alp in primary human osteoblasts[20] (Supplementary Fig. 11b) while 6641 induces an increase in Osteocalcin expression (Fig. 5b). After micro-CT scanning, these same lumbar spine and femur from 6641- and vehicle-treated mice were utilized for biomechanical testing. The femurs were tested in a 3-point bending test and the L3 vertebrae in a compression test using an ElectroForce 5500 Test Instrument (TA Instruments, New Castle, DE) with a ramp rate of 0.05 mm/sec and support span of 8.1 mm, running […] software version 8.2. Time, force, and displacement were collected for use in the analysis of mechanical and material properties using custom MATLAB codes (MathWorks, Natick, MA). The Moment of Inertia (MoI) was calculated based on the micro-CT measurements. […] Biomechanical material properties in a vertebrae and b femur of vehicle- and compound- treated female mice. 12 and 15 mice were used in the vehicle and compound groups respectively. p = ns (Student's t-test). (1 picture or pasted object on this page, not shown here)
# human PTHR1 = target: T1, human PTHR1 (Homo sapiens, UniProt Q03431); test: HitHunter cAMP XS+ assay, cAMP Hunter cell line PTHR1; format: cell-based; settings: for RLU: replicates (1),(2)
# T1 sequence (Q03431 27-593): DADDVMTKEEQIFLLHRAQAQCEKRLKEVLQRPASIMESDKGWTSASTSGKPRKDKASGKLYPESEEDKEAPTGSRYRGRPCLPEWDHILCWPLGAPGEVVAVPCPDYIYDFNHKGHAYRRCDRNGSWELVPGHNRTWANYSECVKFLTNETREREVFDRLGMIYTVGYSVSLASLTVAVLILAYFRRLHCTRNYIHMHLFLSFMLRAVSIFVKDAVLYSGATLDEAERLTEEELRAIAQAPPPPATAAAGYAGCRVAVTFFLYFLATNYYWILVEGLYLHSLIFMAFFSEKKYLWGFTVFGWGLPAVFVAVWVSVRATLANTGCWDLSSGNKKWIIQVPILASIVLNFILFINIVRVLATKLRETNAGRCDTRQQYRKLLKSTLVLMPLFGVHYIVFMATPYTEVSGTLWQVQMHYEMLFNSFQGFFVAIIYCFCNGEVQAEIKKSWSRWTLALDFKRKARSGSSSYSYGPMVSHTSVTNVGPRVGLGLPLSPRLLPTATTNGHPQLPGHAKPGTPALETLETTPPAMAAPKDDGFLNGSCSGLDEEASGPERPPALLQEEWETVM
# Excerpt: Results are reported as raw RLU values and represent the
# mean ± SEM of 2 technical replicates.
# RXFP2 = RXFP2 (Homo sapiens, UniProt Q8WXD0); test: HTRF cAMP assay in HEK-RXFP2 cells (stably transfected; also primary HTS); format: cell-based; design: FLAG (N); expressed in transfected cells; settings: for % Eff (cAMP response): experiments (1)-(3), 100 nM INSL3 = 100%, DMSO = 0%; for EC50: HEK-RXFP2
# Chain of RXFP2 (Q8WXD0 whole entry): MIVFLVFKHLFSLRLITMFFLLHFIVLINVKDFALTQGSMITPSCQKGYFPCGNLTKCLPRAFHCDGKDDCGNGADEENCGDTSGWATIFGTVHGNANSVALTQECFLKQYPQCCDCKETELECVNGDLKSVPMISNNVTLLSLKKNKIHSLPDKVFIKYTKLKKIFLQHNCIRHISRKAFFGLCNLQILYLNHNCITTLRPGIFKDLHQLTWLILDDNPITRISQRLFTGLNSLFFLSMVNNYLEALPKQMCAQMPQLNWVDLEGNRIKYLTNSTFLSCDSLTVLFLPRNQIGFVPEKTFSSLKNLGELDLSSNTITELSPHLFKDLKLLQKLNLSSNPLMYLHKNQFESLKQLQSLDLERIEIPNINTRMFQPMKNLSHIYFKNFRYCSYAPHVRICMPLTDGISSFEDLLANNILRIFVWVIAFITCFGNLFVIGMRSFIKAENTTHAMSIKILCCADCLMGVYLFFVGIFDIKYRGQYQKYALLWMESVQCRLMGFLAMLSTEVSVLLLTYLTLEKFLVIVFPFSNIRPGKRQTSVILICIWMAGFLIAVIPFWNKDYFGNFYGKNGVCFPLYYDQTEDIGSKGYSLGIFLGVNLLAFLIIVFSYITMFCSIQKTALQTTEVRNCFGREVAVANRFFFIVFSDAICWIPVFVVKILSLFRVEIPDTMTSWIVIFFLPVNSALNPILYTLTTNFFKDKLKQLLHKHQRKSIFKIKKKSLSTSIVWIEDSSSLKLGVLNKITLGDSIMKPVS
# Description: A quantitative high-throughput screening (HTS) of more than 80 K compounds of the NCATS/NIH diversity collection was performed at four concentrations in HEK293T cells stably expressing human RXFP2 to identify candidate agonists. A homogenous time resolved fluorescence (HTRF) assay was used to directly detect compound-induced cAMP accumulation, with forskolin or human recombinant INSL3 serving as positive controls. […] A confirmatory CRE-luciferase cAMP screen was used to eliminate any potential false positives due to assay detection artifacts (Supplementary Fig. 1a).
# The cAMP response induced by the compounds was normalized to the cAMP response induced by 100 nM INSL3 as 100% efficacy and the cAMP response induced by DMSO vehicle as 0% efficacy. Emax and EC50 were calculated using four parameter nonlinear fit dose-response stimulation curves. […] Molecular weight (MW).
# The HTRF Gs dynamic cAMP assay kit (CisBio, Bedford, MA) was used to measure intracellular cAMP accumulation in HEK293T cells (ATCC, Manassas, VA)[56]. […] The cell stock was verified mycoplasma free and authenticated by ATCC. Transient transfection was accomplished by treating cells in a 6-well plate with a mixture of 2 μg plasmid and 6 μL Lipofectamine 2000 (Invitrogen, Waltham, MA) per manufacturer’s protocol and incubating overnight. For cAMP measurement in 96-well format, HEK293T cells stably transfected with human RXFP2 (HEK-RXFP2), human RXFP1 (HEK-RXFP1), mouse Rxfp1 (HEK-Rxfp1) or transiently transfected with human RXFP1-RXFP2 chimeric receptors were seeded between 7500 and 30,000 cells per well, depending on cell line responsiveness, in serum-free DMEM medium and incubated overnight at 37 °C, 5% CO2. After 18 h, cells were treated with a titration of compound, 2 μM forskolin, or DMSO vehicle. Control wells were also treated with a titration of INSL3 (Phoenix Pharmaceuticals, Burlingame, CA) or human recombinant relaxin 2 (Peprotech, Cranbury, NJ). For the RXFP2 antagonist experiment, cells were co-treated with 0.28 μM compound or 30 nM INSL3 and a titration of the INSL3 B dimer antagonist[38],[39]. For the INSL3 allosteric modulation experiment, cells were co-treated with 0.025, 0.0025, or 0.00025 μM of compound and a titration of INSL3. Cells were incubated for 1 h at 37 °C, 5% CO2, and then kit cAMP-d2 and anti-cAMP antibody were added per manufacturer protocol. Plates were incubated for 1 h at room temperature and the signal was read on a CLARIOstar plate reader (BMG Labtech, Ortenberg, Germany) at 665 and 620 nm emission wavelengths.
# CCKAR = CCKAR (Homo sapiens, UniProt P32238); test: PRESTO-Tango β-arrestin recruitment, CCKAR; format: cell-based; settings: 10 µM compound; basal level of detection 3-fold RLU
# Chain of CCKAR (P32238 whole entry): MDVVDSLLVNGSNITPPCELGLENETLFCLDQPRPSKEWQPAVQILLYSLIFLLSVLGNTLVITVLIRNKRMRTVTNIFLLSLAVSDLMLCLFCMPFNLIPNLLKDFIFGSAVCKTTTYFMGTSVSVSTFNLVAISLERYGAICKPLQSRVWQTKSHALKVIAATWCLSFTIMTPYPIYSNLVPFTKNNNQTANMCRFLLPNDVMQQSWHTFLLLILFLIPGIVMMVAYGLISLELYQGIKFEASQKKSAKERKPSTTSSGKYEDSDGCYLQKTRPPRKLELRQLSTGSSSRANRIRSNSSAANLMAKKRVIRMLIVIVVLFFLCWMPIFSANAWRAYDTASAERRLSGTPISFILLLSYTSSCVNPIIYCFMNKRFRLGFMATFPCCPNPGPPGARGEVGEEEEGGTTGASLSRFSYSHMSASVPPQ
# [1] = Supplementary Figure 15a, L3 vertebrae compression
# [2] = Supplementary Figure 15b, femur 3-point bending
smiles,measurement,setting,value
O=C1Nc2ccc(-c3cc(C(F)(F)F)cc(C(F)(F)F)c3)cc2C(=O)N2CCN(C(=O)COc3ccc(OC(F)(F)F)cc3I)C[C@@H]12 [compound 6641],biomechanical properties of vertebrae and femur,"vertebrae and femur; 10 mg/kg PO 3 times per week, 8 weeks",no changes
same,Elastic Modulus (MPa),vertebrae and femur; [1],153.265 MPa and 132.946 MPa and 187.209 MPa and 254.765 MPa and 121.079 MPa and 235.799 MPa and 193.606 MPa and 184.897 MPa and 170.559 MPa and 170.73 MPa and 159.611 MPa and 225.093 MPa and 77.447 MPa and 155.764 MPa and 159.911 MPa
same,Ultimate Stress (MPa),vertebrae and femur; [1],14.1661 MPa and 20.1523 MPa and 16.2174 MPa and 22.2452 MPa and 21.0001 MPa and 22.5708 MPa and 23.224 MPa and 14.0488 MPa and 8.99 MPa and 16.5244 MPa and 23.9179 MPa and 31.2724 MPa and 15.8471 MPa and 17.3612 MPa and 20.3053 MPa
same,Yield Stress (MPa),vertebrae and femur; [1],13.761 MPa and 16.4161 MPa and 15.4319 MPa and 20.1436 MPa and 20.5667 MPa and 22.2148 MPa and 17.2035 MPa and 13.8315 MPa and 7.519 MPa and 16.2742 MPa and 23.3124 MPa and 30.0585 MPa and 14.6642 MPa and 10.8847 MPa and 20.2754 MPa
same,Elastic Modulus (MPa),vertebrae and femur; [2],7398.92 MPa and 8063.16 MPa and 7172.9 MPa and 5490.74 MPa and 6726.89 MPa and 7530 MPa and 6047.64 MPa and 5378.62 MPa and 5004.38 MPa and 6512.17 MPa and 8227.03 MPa and 6891.88 MPa and 7622.53 MPa and 6100.62 MPa and 7209.2 MPa
same,Ultimate Stress (MPa),vertebrae and femur; [2],125.43 MPa and 114.53 MPa and 121.49 MPa and 120.23 MPa and 113.48 MPa and 123.54 MPa and 148.86 MPa and 112.5 MPa and 116.79 MPa and 97.01 MPa and 135.98 MPa and 139.67 MPa and 122.96 MPa and 105.85 MPa and 123.21 MPa
same,Yield Stress (MPa),vertebrae and femur; [2],75.91 MPa and 60.78 MPa and 69.18 MPa and 62.13 MPa and 66.41 MPa and 57.07 MPa and 119.15 MPa and 57.74 MPa and 99.95 MPa and 60.92 MPa and 107.1 MPa and 79.8 MPa and 112.52 MPa and 62.12 MPa and 77.2 MPa
same,cAMP response through PTHR1,human PTHR1; Hit Hunter cAMP assay,does not activate
same,RLU,human PTHR1; Log [M] -4.70,1080 RLU
same,RLU,human PTHR1; Log [M] -5.18,1000 RLU
same,RLU,human PTHR1; Log [M] -5.65,960 RLU
same,RLU,human PTHR1; Log [M] -6.13,1040 RLU
same,RLU,human PTHR1; Log [M] -6.61,920 RLU and 960 RLU
same,RLU,human PTHR1; Log [M] -7.08,1200 RLU and 1040 RLU
same,RLU,human PTHR1; Log [M] -7.56,1000 RLU and 880 RLU
same,RLU,human PTHR1; Log [M] -8.04,1000 RLU and 920 RLU
same,RLU,human PTHR1; Log [M] -8.52,920 RLU and 1000 RLU
same,RLU,human PTHR1; Log [M] -8.99,800 RLU
same,% Eff (cAMP response),RXFP2; Log [M] -4.60,104.78% and 100.31% and 87.28%
same,% Eff (cAMP response),RXFP2; Log [M] -5.60,76.57% and 72.45% and 73.51%
same,% Eff (cAMP response),RXFP2; Log [M] -6.60,55.58% and 48.02% and 47.8%
same,% Eff (cAMP response),RXFP2; Log [M] -7.60,15.09% and 15.05% and 13.98%
same,% Eff (cAMP response),RXFP2; Log [M] -8.60,1.51% and 0.43% and 1.99%
same,% Eff (cAMP response),RXFP2; Log [M] -9.60,-0.34% and 0.01% and 0.17%
same,Emax (1)-(3),"RXFP2; individual experiments, % vs. 100 nM INSL3",115% and 116.5% and 89.48%
same,EC50,"RXFP2; individual experiments, read-out: EC50 (1)-(3)",358 nM and 568 nM and 217 nM
same,Emax (% vs. 100 nM INSL3) (AVERAGE),RXFP2; mean (± SEM) of 3 independent experiments,107% and 106.99 ± 8.77% and 106.99%
same,EC50,"RXFP2; mean (± SEM) of 3 independent experiments, read-out: EC50 (AVERAGE)",380 nM and < 1000 nM
same,"β-arrestin recruitment, CCKAR (mean ± SEM)",CCKAR,3.42 ± 0.15 fold RLU
